Experimental data reported in DBAASP.
In brackets after ≈: the same amount, converted by molar mass.

What was measured:
Assay in all cases: ≥ marks a high value that may be exact or a test limit, other limits are often not marked, values filed in µg/mL are converted to µM
[1] = test system: Candida albicans ATCC 2002
[2] = test system: Escherichia coli ATCC 25922
[3] = test system: Staphylococcus aureus ATCC 25923
[4] = test system: Pseudomonas aeruginosa CMCCB 10104
[5] = test system: Streptococcus mutans
[6] = test system: Pseudomonas aeruginosa ATCC 9027
[7] = test system: Klebsiella pneumoniae ATCC 700603
[8] = test system: Bacillus subtilis ATCC 23857

Structure (SMILES) | MIC [1] | MIC [2] | MIC [3] | MIC [4] | MIC [5] | MIC [6] | MIC [7] | MIC [8]
CC[C@H](C)[C@H](N)C(=O)N[C@@H](CCCCN)C(=O)N[C@@H](CCC(N)=O)C(=O)N[C@@H](CC(C)C)C(=O)N[C@@H](CC(C)C)C(=O)N[C@@H](Cc1cnc[nH]1)C(=O)N[C@@H](Cc1ccccc1)C(=O)N[C@@H](Cc1ccccc1)C(=O)N[C@@H](CCC(N)=O)C(=O)N[C@@H](CCCN=C(N)N)C(=O)N[C@@H](Cc1ccccc1)C(=O)NCC(=O)NCC(=O)NCC(=O)N[C@@H](CCCN=C(N)N)C(=O)N[C@@H](Cc1c[nH]c2ccccc12)C(=O)N[C@@H](CCCN=C(N)N)C(=O)N[C@@H](CCCN=C(N)N)C(=O)N[C@@H](CC(C)C)C(=O)N[C@@H](CC(C)C)C(=O)N[C@@H](CCCCN)C(=O)N[C@@H](CCCCN)C(=O)N[C@@H](CC(C)C)C(=O)N[C@@H](Cc1cnc[nH]1)C(=O)N[C@@H](Cc1cnc[nH]1)C(=O)N[C@@H](CC(C)C)C(=O)N[C@@H](CC(C)C)C(=O)N[C@@H](Cc1cnc[nH]1)C(N)=O [IKQLLHFFQRFGGGRWRRLLKKLHHLLH] | – | – | – | – | 4.52 µM (≈ 16 µg/mL) | – | – | –
CC(C)C[C@H](NC(=O)[C@H](Cc1c[nH]c2ccccc12)NC(=O)[C@@H]1CCCN1C(=O)[C@@H]1CCCN1C(=O)[C@H](CC(C)C)NC(=O)[C@@H](N)CC(C)C)C(=O)N[C@@H](CCCN=C(N)N)C(=O)N1CCC[C@H]1C(=O)N[C@@H](CCCN=C(N)N)C(=O)N[C@@H](CC(N)=O)C(=O)NCC(=O)O [LLPPWLRPRNG] | ≥ 152 µM | > 152 µM | > 152 µM | ≥ 152 µM | – | – | – | –
CC[C@H](C)[C@H](NC(=O)[C@H](CCCCN)NC(=O)[C@H](CCCCN)NC(=O)[C@H](C)NC(=O)[C@@H](NC(=O)[C@H](C)NC(=O)[C@H](CC(C)C)NC(=O)[C@H](CC(C)C)NC(=O)[C@H](C)NC(=O)[C@H](CCCCN)NC(=O)[C@H](CC(C)C)NC(=O)[C@H](CC(N)=O)NC(=O)[C@@H](N)CC(C)C)C(C)C)C(=O)N[C@@H](C)C(N)=O [LNLKALLAVAKKIA] | – | 8 µM (≈ 11.7 µg/mL) | 32 µM (≈ 46.9 µg/mL) | – | – | 32 µM (≈ 46.9 µg/mL) | 16 µM (≈ 23.4 µg/mL) | 8 µM (≈ 11.7 µg/mL)

Next, values leading:

MIC [1] | MIC [2] | MIC [3] | MIC [4] | MIC [5] | MIC [6] | MIC [7] | MIC [8] | Structure (SMILES)
1.96 µM (≈ 6.6 µg/mL) | 3.92 µM (≈ 13.2 µg/mL) | 1.96 µM (≈ 6.6 µg/mL) | 1.96 µM (≈ 6.6 µg/mL) | – | – | – | – | CSCC[C@H](NC(=O)[C@H](CC(N)=O)NC(=O)[C@H](CCCCN)NC(=O)[C@H](Cc1ccccc1)NC(=O)[C@@H](NC(=O)[C@H](CC(=O)O)NC(=O)[C@H](CC(C)C)NC(=O)[C@H](CC(C)C)NC(=O)CN)[C@@H](C)O)C(=O)N[C@@H](C)C(=O)N[C@@H](CC(C)C)C(=O)N[C@@H](CC(N)=O)C(=O)N[C@@H](C)C(=O)N[C@@H](C)C(=O)N[C@@H](CCCCN)C(=O)N[C@@H](CO)C(=O)N[C@@H](C)C(=O)NCC(=O)N[C@H](C(=O)N[C@@H](CO)C(=O)N[C@H](C(=O)N[C@@H](CC(C)C)C(=O)N[C@@H](CC(N)=O)C(=O)N[C@@H](C)C(=O)N[C@@H](CC(C)C)C(=O)N[C@@H](CO)C(=O)N[C@H]1CSSC[C@@H](C(=O)O)NC(=O)[C@H]([C@@H](C)O)NC(=O)[C@H](CCCCN)NC(=O)[C@H](CO)NC(=O)[C@H](CC(C)C)NC(=O)[C@H](CCCCN)NC1=O)C(C)C)C(C)C [GLLDTFKNMALNAAKSAGVSVLNALSCKLSKTC]
– | – | – | – | 30.8 µM (≈ 44.7 µg/mL) | – | – | – | CC[C@H](C)[C@H](N)C(=O)N[C@@H](CCCCN)C(=O)N[C@H](C(=O)N[C@@H](CC(C)C)C(=O)N[C@@H](CC(C)C)C(=O)N[C@@H](Cc1cnc[nH]1)C(=O)N[C@@H](Cc1ccccc1)C(=O)N[C@@H](Cc1ccccc1)C(=O)N[C@@H](CCC(N)=O)C(=O)N[C@@H](CCCN=C(N)N)C(=O)N[C@@H](Cc1ccccc1)C(N)=O)[C@@H](C)O [IKTLLHFFQRF]
18.2 µM (≈ 30 µg/mL) | 18.2 µM (≈ 30 µg/mL) | > 72.8 µM | 18.2 µM (≈ 30 µg/mL) | – | – | – | – | CC[C@H](C)[C@@H]1NC(=O)[C@@H](NC(=O)[C@H](CCCN=C(N)N)NC(=O)[C@H](CO)NC(=O)[C@@H](N)[C@@H](C)O)CSSC[C@@H](C(=O)N[C@@H](CO)C(=O)O)NC(=O)[C@H](CCCCN)NC(=O)[C@H](CCCCN)NC(=O)[C@H](CCCN=C(N)N)NC(=O)[C@H](CCCN=C(N)N)NC(=O)[C@H](Cc2ccc(O)cc2)NC(=O)[C@H](Cc2ccccc2)NC1=O [TSRCIFYRRKKCS]
